{"source": "patent US20160297851A1", "about": "“BROAD SPECTRUM […]” (priority 2012, published 2016)", "experiment_in_all_cases": "microbe, parasite or virus in culture", "key": {"[1]": {"test_system": "Rhodococcus equi ATCC 6939", "assay_type": "cell-based", "settings": "Rhodococcus (subgen. Prescottella) equi, ATCC6939"}, "[2]": {"test_system": "Corynebacterium glutamicum DSM 44475", "assay_type": "cell-based", "settings": "DSM44475"}, "Prevotella copris": {"test_system": "Prevotella copris", "assay_type": "cell-based"}, "S. aureus COL": {"test_system": "S. aureus COL", "assay_type": "cell-based", "settings": "Staphylococcus aureus"}, "Helicobacter pylori SS1": {"test_system": "Helicobacter pylori SS1", "assay_type": "cell-based", "settings": "amount for a 1000-fold decrease in viable cells"}, "[3]": {"test_system": "Rhodococcus opacus DSM 1069", "assay_type": "cell-based"}, "wild type E. coli MG1655": {"test_system": "wild type E. coli MG1655", "assay_type": "cell-based, Escherichia coli"}, "[4]": {"test_system": "Lactobacillus plantarum ATCC 8014", "assay_type": "cell-based", "settings": "Lactiplantibacillus plantarum, ATCC8014"}}, "note": "Like-named read-outs stand apart in the source and are kept apart here."}
{"smiles": "CCCCCCCCCCCCCCCC(=O)N(C)[C@H](CO)C(=O)N[C@H](C)C(=O)NCC(=O)N(C)[C@@H]1C(=O)N[C@@H](C)C(=O)N[C@H](C(=O)O)Cc2ccc(O)c(c2)-c2cc1ccc2O", "note": "[Arylomycin C16, arylomycin C16]", "values": [{"measurement": "MIC", "setting": "[1]", "result": 16, "unit": "µg/mL"}, {"measurement": "MIC", "setting": "[2]", "result": 2, "unit": "µg/mL"}, {"measurement": "MIC", "setting": "Prevotella copris", "result": "> 16", "unit": "µg/mL"}, {"measurement": "MIC", "setting": "S. aureus COL", "result": 12, "unit": "µg/mL"}, {"measurement": "MIC", "setting": "Helicobacter pylori SS1; Helicobacter pylori, SS1, read-out: MIC", "result": 4, "unit": "µg/mL"}, {"measurement": "MIC", "setting": "Helicobacter pylori SS1", "result": 4, "unit": "µg/mL"}, {"measurement": "MIC", "setting": "[3]", "result": 2, "unit": "µg/mL"}, {"measurement": "MIC", "setting": "[3]; Rhodococcus opacus, DSM1069, read-out: MIC", "result": 1, "unit": "µg/mL"}, {"measurement": "MIC", "setting": "wild type E. coli MG1655; Escherichia coli, MG1655, Resistant strain (wild type), read-out: MIC", "result": "> 64", "unit": "µg/mL"}, {"measurement": "MIC", "setting": "wild type E. coli MG1655; Resistant strain (wild type)", "result": ">128", "unit": "µg/mL"}, {"measurement": "MIC", "setting": "[4]", "result": "> 128", "unit": "µg/mL"}]}
